Legend:
Assay in all cases: relative viability (nuclei count vs DMSO), 5 days (fraction); higher = more cells survive
[1] = compound: C1=CC(=CC=C1NC(=S)NNC2=C(C=C(C=C2[N+](=O)[O-])C(F)(F)F)[N+](=O)[O-])F [Kobe2602] + O=C(CCCCCCC(=O)Nc1ccccc1)NO [Vorinostat] (partner 1 µM)
Method in brief: (§1)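 Medians of duplicate plates are given as relative viability. That measure is the nuclei count in treated wells divided by the count in vehicle wells. Counts were taken on 4× images of lung cancer cell lines in 1536-well plates, 5 days after pin-tool dosing the day after seeding with one drug alone or a fixed anchor-drug dose plus five library-drug doses (not always all listed) in √10 steps.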

[2] = compound: O[C@@H](COc1cccc2ncccc12)CN1CCN([C@@H]2c3ccccc3[C@@H]3[C@H](c4ccccc42)C3(F)F)CC1 [Zosuquidar] + COc1cccc2cc(-c3nc([C@H]4CC[C@H](C(=O)O)CC4)n4ncnc(N)c34)[nH]c12 [OSI-027] (partner 0.5 µM)
Method in brief: as §1

[3] = compound: O[C@@H](COc1cccc2ncccc12)CN1CCN([C@@H]2c3ccccc3[C@@H]3[C@H](c4ccccc42)C3(F)F)CC1 [Zosuquidar] + C[C@@H](Oc1cc(-c2cnn(C3CCNCC3)c2)cnc1N)c1c(Cl)ccc(F)c1Cl [Crizotinib] (partner 1 µM)
Method in brief: as §1

Cell Line | relative viability ([1]; first compound 0.2 µM) | relative viability ([1]; first compound 0.6325 µM) | relative viability ([1]; first compound 2 µM) | relative viability ([1]; first compound 6.325 µM) | relative viability ([1]; first compound 20 µM) | relative viability ([2]; first compound 0.01 µM) | relative viability ([2]; first compound 0.03162 µM) | relative viability ([2]; first compound 0.1 µM) | relative viability ([2]; first compound 0.3162 µM) | relative viability ([2]; first compound 1 µM) | relative viability ([3]; first compound 0.01 µM) | relative viability ([3]; first compound 0.03162 µM) | relative viability ([3]; first compound 0.1 µM) | relative viability ([3]; first compound 0.3162 µM) | relative viability ([3]; first compound 1 µM)
NCI-H1437 | 0.855 | 0.739 | 0.78 | 0.791 | 0.625 | 0.865 | 0.889 | 0.765 | 1.12 | 0.871 | 0.868 | 0.994 | 0.92 | 0.911 | 0.897
EKVX | 0.678 | 0.879 | 0.652 | 0.757 | 0.672 | 0.743 | 0.622 | 0.536 | 0.707 | 0.762 | 0.951 | 1.01 | 0.883 | 0.995 | 0.705
NCI-H596 | 0.591 | 0.726 | 0.63 | 0.659 | 0.68 | 0.714 | – | 0.724 | 1.01 | 0.689 | 1.03 | 0.898 | 1.01 | 1.06 | 1.02
NCI-H1993 | 0.737 | 0.817 | 0.782 | 0.586 | 0.728 | 0.632 | 0.677 | 0.488 | 0.497 | 0.525 | 0.864 | 0.859 | 0.789 | 1.01 | 0.881
HCC-78 | 0.485 | 0.444 | 0.433 | 0.452 | 0.507 | 0.346 | 0.356 | – | 0.422 | 0.294 | 0.352 | 0.321 | – | 0.362 | 0.322
NCI-H2087 | 0.628 | 0.799 | 0.64 | 0.714 | 0.568 | 0.607 | – | 0.432 | 0.694 | 0.587 | 0.839 | 1.05 | 0.817 | 0.915 | 0.836
H3255 | 0.772 | 0.841 | 0.776 | 0.853 | 0.78 | 0.639 | 0.532 | 0.451 | 0.624 | 0.565 | 0.885 | 0.832 | 0.669 | 0.945 | 0.857
NCI-H2126 | 0.811 | 0.819 | 0.737 | 0.76 | 0.855 | 0.736 | 0.982 | – | 0.684 | 0.787 | 0.92 | 0.987 | 0.911 | 1.04 | 1.07
LC-2-ad | 0.664 | 0.706 | 0.719 | 0.649 | 0.722 | 0.865 | 0.814 | 0.829 | 1.09 | 0.864 | 0.443 | 0.508 | 0.451 | 0.449 | 0.46
SW 1573 | 0.743 | 0.868 | 0.676 | 0.868 | 0.77 | 0.624 | 0.609 | 0.81 | 1 | 0.689 | 0.873 | 0.728 | 0.791 | 0.775 | 0.833
EBC-1 | – | – | – | – | – | – | – | – | – | – | 0.193 | 0.214 | 0.201 | 0.201 | 0.205
HCC-15 | 0.908 | 0.912 | 0.814 | 0.815 | 0.812 | 0.653 | 0.64 | 0.568 | 0.779 | 0.725 | 0.821 | 0.865 | 0.71 | 0.856 | 0.874
NCI-H1703 | – | – | – | – | – | – | – | – | – | – | 0.785 | 1.13 | 0.682 | 0.582 | 1.01
NCI-H522 | 0.949 | 1.05 | 0.964 | 1 | 0.898 | 0.714 | 0.58 | 0.756 | 0.898 | 0.857 | – | – | – | – | –
NCI-H1793 | 0.702 | 0.881 | 0.764 | 0.795 | 0.936 | 0.315 | 0.389 | – | 0.287 | 0.311 | – | – | – | – | –
Calu-6 | – | – | – | – | – | – | – | – | – | – | 0.872 | 0.764 | 0.879 | 0.844 | 0.791
NCI-H2342 | 0.713 | 0.789 | 0.761 | 0.716 | 1.17 | 0.605 | 0.597 | 0.558 | 0.668 | 0.624 | – | – | – | – | –
NCI-H1563 | – | – | – | – | – | 0.751 | 0.663 | 0.753 | 0.762 | 0.827 | 0.734 | 0.904 | 0.84 | 0.828 | 0.838
NCI-H1299 | – | – | – | – | – | – | – | – | – | – | 0.938 | 1.01 | 1.03 | 0.982 | 0.928
NCI-H1623 | – | – | – | – | – | 0.432 | 0.464 | 0.421 | 0.441 | 0.43 | – | – | – | – | –
SW 900 | 0.677 | 0.645 | 0.492 | 0.476 | 0.602 | 0.676 | 0.507 | 0.493 | 0.646 | 0.706 | – | – | – | – | –
NCI-H1648 | 0.464 | 0.441 | 0.351 | 0.334 | 0.338 | 0.243 | – | 0.234 | 0.288 | 0.245 | – | – | – | – | –
NCI-H1395 | 0.786 | 1.04 | 0.733 | 0.666 | 0.93 | 0.653 | 0.578 | 0.552 | 0.797 | 0.677 | – | – | – | – | –
IA-LM | 0.894 | 0.95 | 0.819 | 0.953 | 0.988 | – | – | – | – | – | – | 0.804 | 1.05 | 1.03 | 0.861
A549 | – | – | – | – | – | – | – | – | – | – | 0.805 | 0.738 | 0.844 | 0.722 | 0.765
NCI-H1792 | – | – | – | – | – | 0.786 | 0.601 | – | 0.837 | 0.753 | 0.912 | 0.771 | 0.776 | 0.954 | 0.977

Source: the supplement of paper PMC10307832
